Entries after “also recorded” stand apart in the source; their conditions may differ.
Experiments:
[1] = tested on: PKC binding to recombinant RACK1; assay: Overlay / overlay-extraction assay: inhibition of PKC binding to recombinant RACK1 by peptides; parameters: species or system rat
Experimental: The variation in the overlay protocol consisted of incubating the putative binding peptides with a mixture of PKC isozymes for 15 minutes at room temperature before the mixture was used to contact the nitrocellulose strips containing immobilized RACK1.
Nitrocellulose strips containing immobilized RACK1, that had been contacted with a solution containing a mixture of PKC isozymes, were washed and the area corresponding to the 36 kDa (RACK1-containing) band was cut out. The pieces (containing PKC/RACK1 complexes) were incubated with sample buffer for 10 minutes at 80° C. The sample buffer and the nitrocellulose pieces were then placed in wells in the PAGE gel and subjected to SDS-PAGE to elute the bound proteins. The gel was blotted onto nitrocellulose and a Western blot analysis was carried out using the mixture of antibodies (specific for PKC α, β, γ, δ, ε and ζ isozymes) described in Example 1 part B. Bound antibodies were detected by ^125I-protein A.
Peptides derived from or homologous to WD-40 repeats of RACK1 were tested for their ability to inhibit PKC binding to recombinant RACK1. Binding of PKC to RACK1 was carried out using a variation of the overlay procedure described in Example 3 part B. In the experimental samples, peptides were incubated with a solution containing a mixture of rat brain PKC isozymes (˜10 nM each) for 15 minutes at room temperature.
Following completion of the modified overlay protocol, the samples were subjected to the overlay-extraction protocol detailed in part B, above.
The results in FIG. 3 show the binding of PKC to RACK1, carried out without (lane 1) or with (lanes 2-4) a preincubation of peptides with PKC. […] Peptide I caused an 81±6% inhibition of PKC binding to recombinant RACK1 as compared with binding in the absence of added peptide (n=3). Lanes 3 and 4 show PKC binding following a preincubation with 10 μM peptide rIII (SEQ ID NO:4) and 10 μM peptide rVI (SEQ ID NO:7), respectively. […] The results shown are representative of three independent experiments.

PKC [2] = assay: PKC autophosphorylation; format: biochemical, rat; settings: peptide 10 μM; absence of PKC activators
Experimental: Rat brain PKC (˜10 nM) was incubated with mild agitation in a final volume of 250 μl of overlay buffer, as in Example 1 either with anti-βPKC pseudosubstrate antibodies (1:10 dilution, Life Technologies, Gaithersburg, Md.) or with the indicated peptide (10 μM). Where indicated, PS (50 μg/ml), DG (0.8 μg/ml) and CaCl2 (1 mM) were also added. The amount of autophosphorylation was determined after 2 hours for the reaction with the anti-pseudosubstrate antibodies, or after 15 minutes for the other samples. 50 μl of a buffer comprised of 20 mM Tris-HCl (pH 7.5), 20 mM MgCl2, 20 μM ATP and 5 μci/ml [γ-^32P]ATP. The mixture was incubated for 15 minutes at room temperature and the reaction was stopped by adding 60 μl sample buffer (see Example 9). The samples were then boiled for 10 minutes, loaded onto a 10% SDS-PAGE mini gel and electrophoresed. The gel was fixed with 50% methanol and 10% acetic acid for 1 hour, and the autophosphorylation of PKC was determined by autoradiography.
The results in FIG. 8 show PKC autophosphorylation in the presence of DG, PS, and calcium (lane 1), in the presence of EGTA (lane 2), in the presence of anti-βPKC pseudosubstrate antibodies (diluted 1:10 in 20 mM Tris-HCl; lane 3), in the presence of peptide rVI (SEQ ID NO:7; 10 μM; lane 4), in the presence of peptide I (SEQ ID NO:1; 10 μM; lane 5), or in the presence of control peptide (SEQ ID NO:9; 10 μM; lane 6).

δ and εPKC isozymes = assay: PKC isozyme translocation and degradation in cardiac myocytes; format: cell-based, rat
Experimental: In cardiac myocytes, norepinephrine (NE, 2 μM) causes translocation of δ and εPKC isozymes from the cytosolic to the particulate fraction. […] This peptide-induced translocation was followed by degradation of δ and εPKC isozymes.

Xenopus oocytes = assay: PKC-mediated Xenopus oocyte maturation (germinal vesicle breakdown, GVBD) after peptide microinjection; format: cell-based; settings: for dose dependence of effect on GVBD: between 5 μm-500 μM
PKC [3] = assay: Histone type IIIs phosphorylation by PKC; format: biochemical; settings: absence of PS, DG and calcium; peptide 10 μM
Experimental: Histone type IIIs (Sigma Chemical Company, St. Louis, Mo.) was phosphorylated by PKC (˜10 nM) in the absence (lane 1) and presence of peptide rVI (10 μM) (lanes 2 and 3) and in the presence and absence of DG (0.8 μg/ml), PS (50 μg/ml) and CaCl2 (1 mM) (lane 3). The results are expressed as percentage of control that is the amount of Histone phosphorylation by PKC in the presence of DG (0.8 μg/ml), PS (50 μg/ml) and CaCl2 (1 mM). The results are the average ± SEM of two independent experiments. PKC was first incubated with the peptide rVI (10 μM) for 15 minutes in overlay buffer as described above. Histone type IIIs (40 μg/ml) was added in Tris-HCl (20 mM), MgCl2 (20 mM), ATP (20 μM) and ([γ-^32P]ATP (5 μci/ml) with or without PS (50 μg/ml), DG (0.8 μg/ml) and CaCl2 (1 mM). Histone phosphorylation was determined by autoradiography as above.

[4] = peptide introduced into cardiac myocytes
[5] = peptide 50 μM alone, no insulin

peptide I: 15-residue peptide homologous to a sequence in the sixth WD-40 repeat of RACK1; PKC antagonist (KGDYEKILVALCGGN)
inhibition of PKC binding to recombinant RACK1 as compared with binding in the absence of added peptide ([1]; 10 μM peptide preincubated with PKC isozyme mixture 15 min, n=3): 81±6% | induction of PKC autophosphorylation (in words) (PKC [2]): No autophosphorylation; also recorded: Neither peptide I nor control peptide induced PKC autophosphorylation | NE-induced translocation of δ and εPKC (δ and εPKC isozymes; norepinephrine 2 μM): inhibited | degradation of PKC isozymes (δ and εPKC isozymes; [4]): nor does it induce PKC degradation; also recorded: did not cause degradation | translocation / distribution of δ and εPKC isozymes in the absence of hormone stimulation (δ and εPKC isozymes; [4]): does not affect PKC distribution | dose dependence of effect on GVBD (Xenopus oocytes): dose-dependent

peptide rVI: eight amino acid peptide identical to a segment of RACK1 WD-40 repeat VI (DIINALCF)
induction of PKC-mediated histone phosphorylation (PKC [3]): effective to induce PKC-mediated histone phosphorylation; also recorded: induced histone phosphorylation | inhibition of PKC binding to RACK1 (in words) ([1]; 10 μM peptide preincubated with PKC): inhibit the binding of PKC to RACK1 | PKC autophosphorylation relative to that with optimal PS, DG and calcium (PKC [2]): over 80% | dose dependence of effect on GVBD (Xenopus oocytes): dose-dependent | delay to initiation of maturation in the absence of insulin (Xenopus oocytes; [5]): 6 to 7 h | induction of GVBD in the absence of insulin (Xenopus oocytes; [5]): induced oocyte maturation; also recorded: induced GVBD | plateau % GVBD in the absence of insulin (Xenopus oocytes; [5]): about 50%

Source: US6342368B1, “WD-40-derived peptides and uses thereof” (The Board of Trustees of the Leland Stanford Junior …, priority 1994, dated 2002)
